According to US20260184675A1, “CHIRAL ISOMERIC SULFITE COMPOUND AND APPLICATION THEREOF” (Chengdu Hanova BioSciences Co., Ltd, priority 2024, published 2026):

Tests used:
[1] = tested on: eggs of Panonychus citri; assay: Effect on hatching of eggs of Panonychus citri, leaf disc method; assay type: in vivo; details: 1 ppm; for Hatching rate (%), Replicate 1 / Hatching rate (%), Replicate 2 / Hatching rate (%), Replicate 3 / Number of hatched larvae 5 days after insecticide delivery, Replicate 1 / Number of hatched larvae 5 days after insecticide delivery, Replicate 2 / Number of hatched larvae 5 days after insecticide delivery, Replicate 3: Panonychus citri eggs; for Hatching rate (%), Replicate 1 / Hatching rate (%), Replicate 2 / Hatching rate (%), Replicate 3: 5 days after delivery; for Number of hatched larvae 5 days after insecticide delivery, Replicate 1 / Number of hatched larvae 5 days after insecticide delivery, Replicate 2 / Number of hatched larvae 5 days after insecticide delivery, Replicate 3: leaf disc
Protocol: (§1) • (1) Preparation of leaf discs containing eggs: 20 female adult mites of Tetranychus cinnabarinus were transferred onto leaf discs of Vicia faba with a diameter of 2.0 cm (with wetted filter paper at the bottom), then covered it with a lidded culture dish and cultivated under moisturizing conditions, the adult mites were removed within 36 hours and microscopic examination and counting were performed on leaf discs containing eggs. • (2) Investigation of egg population base: Before pesticide soaking, a microscopic examination was conducted on the egg basic number of each leaf disc, with 2 replicates set for each treatment. • (3) Pesticide soaking treatment: The leaf butterflies loaded with mite eggs were soaked in clear water and sulfite compounds for 10 seconds, respectively, then taken out and cultivated under moisturizing conditions. Each treatment should be repeated for no less than 3 times. • (4) Cultivation and observation: The […] were cultivated under normal conditions. Five days after insecticide delivery, the hatching status of mite eggs was investigated. • Note: The temperature and humidity conditions of the constant temperature and humidity incubator after the treatment should be controlled so as to avoid excessive temperature differences, which may cause generation and dripping of condensate water in the culture dish, resulting in abnormal death of eggs due to soaking in water; it is also necessary to ensure sufficient strong ambient light, without directing irradiating the leaves. • (5) Survey of Results: The experimental materials of each treatment group were regularly hydrated and moisturized, and the hatching of eggs was observed. On the 7th day after insecticide delivery, the number of hatched eggs for each treatment was recorded, and the survey of results was recorded in the original notebook. According to the experimental requirements and characteristics of agents, the survey time can be shortened or extended.
• 1) Surveying and recording the number of hatched eggs for each treatment. • 2) Photographing and recording whether there was any pesticide damage to the leaf discs of Vicia faba. • 3) Recording the developmental status of experimental mite eggs, behavior status of nymph mites, including abnormal phenomena such as delayed or stopped development of mite eggs, difficulty in breaking hull for nymph mites, or painful struggles after hatching, etc. • (6) Calculation method: Based on the survey data, the prevention and control effect of each treatment was calculated according to the following formula, and the calculation results were kept to two decimal places.
This test adopted the method in Test Example 1 of technical section, mainly used leaf disc method to explore the effect on hatching of eggs of Panonychus citri by compounds 1-(S,S), 1-(S,R), 1-(R,R), 1-(R,S), 1′-(S,S), 1′-(S,R), 1′-(R,R), 1′-(R,S), compound 1, compound 1′, S-10, R-10, S-10′, R-10′, compound 10, compound 10′, compound 19-(S,S), 19-(S,R), 19-(R,R), 19-(R,S), 19′-(S,S), 19′-(S,R), 19′-(R,R), 19′-(R,S), compound 19, and compound 19′. The concentration of all compounds was 1 ppm.

[2] = tested on: pest eggs of Tetranychus cinnabarinus; assay: Effect on hatching of pest eggs of Tetranychus cinnabarinus, leaf disc method; assay type: in vivo; details: for Hatching rate (%): 7 days after insecticide delivery; for inhibitory effect on the hatching of pest eggs of Tetranychus cinnabarinus (in words): 1 ppm
Protocol: as §1, with “extended. • 1) Surveying and recording the number of hatched eggs for each treatment. • 2) Photographing and recording whether there was any pesticide damage to the leaf discs of Vicia faba. • 3) Recording the developmental status of experimental mite eggs, behavior status of nymph mites, including abnormal phenomena such as delayed or stopped development of mite eggs, difficulty in breaking hull for nymph mites, or painful struggles after hatching, etc. • (6) Calculation method: Based on the survey data, the prevention and control effect of each treatment was calculated according to the following formula, and the calculation results were kept to two decimal places. [formula] [formula] [table]” for “extended.”

[3] = tested on: Magnaporthe grisea; assay type: cell-based; details: 100 ppm; for Average antifungal rate (%) / Antifungal rate of Magnaporthe grisea (%), Replicate 1 / Antifungal rate of Magnaporthe grisea (%), Replicate 2 / Antifungal rate of Magnaporthe grisea (%), Replicate 3: 96-well plate; for Average antifungal rate (%): average of 3 replicates
[4] = tested on: eggs of Harmonia axyridis; assay: Effect on hatching of eggs of Harmonia axyridis, egg card immersion; assay type: in vivo; details: 100 ppm; for Number of hatched larvae 4 days after insecticide delivery, Replicate 1 / Number of hatched larvae 4 days after insecticide delivery, Replicate 2 / Number of hatched larvae 4 days after insecticide delivery, Replicate 3: Harmonia axyridis egg cards, immersed 30 seconds; for Hatching rate (%), Replicate 1 / Hatching rate (%), Replicate 2 / Hatching rate (%), Replicate 3: Harmonia axyridis eggs, 4 days after delivery
Excerpt: The eggs of Harmonia axyridis cards (with approximately 20 eggs per card) were purchased from Henan Jiyuan Baiyun Industry Co., Ltd. in Henan Province. The number of eggs on the egg cards was counted as the basic number before insecticide delivery, and 5 cards were used as one treatment, with 3 replicates per treatment. After immersing the egg cards in a 100 ppm insecticide solution for 30 seconds, they were taken out and air dried, then cultivated under moisturizing conditions, and the […] were cultivated at 27° C. 4 days after insecticide delivery, the hatching status of eggs of Harmonia axyridis was investigated, and the prevention and control effect was calculated according to the following formula. [formula] [formula]

SMILES: CC[C@@H](COS(=O)OCCF)Oc1ccc(Cl)cc1Cl (stereo partly drawn) [19′-(S,S)]
- inhibitory effect on the hatching of eggs of Panonychus citri (in words) [1]: good inhibitory effects
- Hatching rate (%), Replicate 1 ([1]; listed as 19′-(S, S)): 0.00%
- Hatching rate (%), Replicate 2 ([1]; listed as 19′-(S, S)): 0.00%
- Hatching rate (%), Replicate 3 ([1]; listed as 19′-(S, S)): 0.00%
- Number of hatched larvae 5 days after insecticide delivery, Replicate 1 ([1]; listed as 19′-(S, S)): 0
- Number of hatched larvae 5 days after insecticide delivery, Replicate 2 ([1]; listed as 19′-(S, S)): 0
- Number of hatched larvae 5 days after insecticide delivery, Replicate 3 ([1]; listed as 19′-(S, S)): 0
- Hatching rate (%) ([2]; 0.25 mg/L, Replicate 1): 40.82%
- Hatching rate (%) ([2]; 0.25 mg/L, Replicate 2): 39.73%
- Number of hatched larvae 7 days after insecticide delivery ([2]; 0.25 mg/L, Replicate 1): 29
- Number of hatched larvae 7 days after insecticide delivery ([2]; 0.25 mg/L, Replicate 2): 44
- Hatching rate (%) ([2]; 0.5 mg/L, Replicate 1): 5.71%
- Hatching rate (%) ([2]; 0.5 mg/L, Replicate 2): 3.57%
- Number of hatched larvae 7 days after insecticide delivery ([2]; 0.5 mg/L, Replicate 1): 66
- Number of hatched larvae 7 days after insecticide delivery ([2]; 0.5 mg/L, Replicate 2): 54
- Hatching rate (%) ([2]; 1 mg/L, Replicate 1): 0.00%
- Hatching rate (%) ([2]; 1 mg/L, Replicate 2): 0.00%
- Number of hatched larvae 7 days after insecticide delivery ([2]; 1 mg/L, Replicate 1): 56
- Number of hatched larvae 7 days after insecticide delivery ([2]; 1 mg/L, Replicate 2): 49
- inhibitory effect on the hatching of pest eggs of Tetranychus cinnabarinus (in words) [2]: excellent inhibitory effects
- inhibitory rate against Magnaporthe grisea (in words) [3]: strong inhibitory rate
- Average antifungal rate (%) [3]: 97.09%
- Antifungal rate of Magnaporthe grisea (%), Replicate 1 [3]: 97.41%
- Antifungal rate of Magnaporthe grisea (%), Replicate 2 [3]: 96.58%
- Antifungal rate of Magnaporthe grisea (%), Replicate 3 [3]: 97.29%
- inhibitory activity on the hatching of eggs of Harmonia axyridis (in words) [4]: strong inhibitory activities
- Number of hatched larvae 4 days after insecticide delivery, Replicate 1 ([4]; listed as 19′-(S, S)): 0
- Number of hatched larvae 4 days after insecticide delivery, Replicate 2 ([4]; listed as 19′-(S, S)): 0
- Number of hatched larvae 4 days after insecticide delivery, Replicate 3 ([4]; listed as 19′-(S, S)): 0
- Hatching rate (%), Replicate 1 ([4]; listed as 19′-(S, S)): 0.00%
- Hatching rate (%), Replicate 2 ([4]; listed as 19′-(S, S)): 0.00%
- Hatching rate (%), Replicate 3 ([4]; listed as 19′-(S, S)): 0.00%

SMILES: CCC(COS(=O)OCCF)Oc1ccc(Cl)cc1Cl (stereo not shown) [Compound 19′]
- inhibitory effect on the hatching of eggs of Panonychus citri (in words) [1]: good inhibitory effects
- Hatching rate (%), Replicate 1 [1]: 0.00%
- Hatching rate (%), Replicate 2 [1]: 0.00%
- Hatching rate (%), Replicate 3 [1]: 0.00%
- Number of hatched larvae 5 days after insecticide delivery, Replicate 1 [1]: 0
- Number of hatched larvae 5 days after insecticide delivery, Replicate 2 [1]: 0
- Number of hatched larvae 5 days after insecticide delivery, Replicate 3 [1]: 0
- Hatching rate (%) ([2]; 0.25 mg/L, Replicate 1): 70.21%
- Hatching rate (%) ([2]; 0.25 mg/L, Replicate 2): 73.24%
- Number of hatched larvae 7 days after insecticide delivery ([2]; 0.25 mg/L, Replicate 1): 14
- Number of hatched larvae 7 days after insecticide delivery ([2]; 0.25 mg/L, Replicate 2): 19
- Hatching rate (%) ([2]; 0.5 mg/L, Replicate 1): 34.72%
- Hatching rate (%) ([2]; 0.5 mg/L, Replicate 2): 34.43%
- Number of hatched larvae 7 days after insecticide delivery ([2]; 0.5 mg/L, Replicate 1): 47
- Number of hatched larvae 7 days after insecticide delivery ([2]; 0.5 mg/L, Replicate 2): 40
- Hatching rate (%) ([2]; 1 mg/L, Replicate 1): 1.89%
- Hatching rate (%) ([2]; 1 mg/L, Replicate 2): 0.00%
- Number of hatched larvae 7 days after insecticide delivery ([2]; 1 mg/L, Replicate 1): 52
- Number of hatched larvae 7 days after insecticide delivery ([2]; 1 mg/L, Replicate 2): 63
- inhibitory effect on the hatching of pest eggs of Tetranychus cinnabarinus (in words) [2]: excellent inhibitory effects
- inhibitory rate against Magnaporthe grisea (in words) [3]: strong inhibitory rate
- Average antifungal rate (%) [3]: 92.59%
- Antifungal rate of Magnaporthe grisea (%), Replicate 1 [3]: 91.33%
- Antifungal rate of Magnaporthe grisea (%), Replicate 2 [3]: 93.48%
- Antifungal rate of Magnaporthe grisea (%), Replicate 3 [3]: 92.95%
- inhibitory activity on the hatching of eggs of Harmonia axyridis (in words) [4]: strong inhibitory activities
- Number of hatched larvae 4 days after insecticide delivery, Replicate 1 [4]: 4
- Number of hatched larvae 4 days after insecticide delivery, Replicate 2 [4]: 5
- Number of hatched larvae 4 days after insecticide delivery, Replicate 3 [4]: 7
- Hatching rate (%), Replicate 1 [4]: 4.49%
- Hatching rate (%), Replicate 2 [4]: 5.21%
- Hatching rate (%), Replicate 3 [4]: 6.48%
